The numbers were not newly measured in PMC7933317 (Probiotics and antimicrobial proteins, 2021), which cites them from elsewhere.

For the data set, the system named is human red blood cells (RBCs). Conditions: over the same concentration range; ref [30].

With ALWKKLLKKLLKSAKKLG [C18G], the “hemolysis of human RBCs” value was less than 10%.
